The subject of one series is ES-8 EWS cells. Put plainly: Single-cell alkali gel electrophoresis. The conditions noted are these: after 12 hours of exposure to the PARPi. The format is cell-based.
Series [1] has as its system ES-6 cells. Put plainly: Dose-response cytotoxicity in ES-6 cells. The series is classed as cell-based. The conditions noted are these: for Sensitivity (cytotoxicity): 144 hours.
Series [2] is described as follows: Plasma and tumor pharmacokinetics in mice with orthotopic xenografts. The series is classed as in vivo, CD1-nude mice. The conditions noted are these: for concentration at 12 h: CD1-nude, mouse, orthotopic xenograft tumor, po; for Murine equivalent dose (most appropriate dose for twice-daily oral administration in mice): from plasma AUC in mice compared with plasma PK data in patients.

For series [3], the system named is Ewing sarcoma cell lines. Put plainly: Dose-response cytotoxicity in Ewing sarcoma cell lines. The format is cell-based.
The conditions of series [4]: ref Morton et al., 2005, 2000; cited from earlier work.
The subject of another series is EWS cell lines. Nature of the series: Drug-pair cytotoxicity with response surface model.
Another series relates to SAOS2. Put plainly: Dose-response cytotoxicity in SAOS2. The series is classed as cell-based.
The conditions of series [5]: TMZ to 10 mg/kg in mice; BMN-673 to 0.1 mg/kg (of the MED).
Series [6] has as its system ES-6 cells. The following applies: later timepoints, ref Garnett et al., 2012; cited from earlier work.
Series [7] has as its system Ewing sarcoma cell lines. The conditions noted are these: ref Brenner et al., 2012, Garnett et al.; cited from earlier work.
Series [8] concerns ES-6 cells. The conditions noted are these: 72 hours, ref Garnett et al., 2012; cited from earlier work.
The next series deals with PARP1 (Homo sapiens, UniProt P09874). The conditions noted are these: 10 micromolar PARPi + 0.01% MMS.
Setting [9] is: EW-8, ES-8, and ES-1 cells, 72 hours of exposure.
Where [10] appears, read: translocation-positive EWS cell lines, RSM.

pEC50: −log10 of the molar value. Where two headings read alike, the source gives them in different places.

Chain of PARP1 (P09874 whole entry): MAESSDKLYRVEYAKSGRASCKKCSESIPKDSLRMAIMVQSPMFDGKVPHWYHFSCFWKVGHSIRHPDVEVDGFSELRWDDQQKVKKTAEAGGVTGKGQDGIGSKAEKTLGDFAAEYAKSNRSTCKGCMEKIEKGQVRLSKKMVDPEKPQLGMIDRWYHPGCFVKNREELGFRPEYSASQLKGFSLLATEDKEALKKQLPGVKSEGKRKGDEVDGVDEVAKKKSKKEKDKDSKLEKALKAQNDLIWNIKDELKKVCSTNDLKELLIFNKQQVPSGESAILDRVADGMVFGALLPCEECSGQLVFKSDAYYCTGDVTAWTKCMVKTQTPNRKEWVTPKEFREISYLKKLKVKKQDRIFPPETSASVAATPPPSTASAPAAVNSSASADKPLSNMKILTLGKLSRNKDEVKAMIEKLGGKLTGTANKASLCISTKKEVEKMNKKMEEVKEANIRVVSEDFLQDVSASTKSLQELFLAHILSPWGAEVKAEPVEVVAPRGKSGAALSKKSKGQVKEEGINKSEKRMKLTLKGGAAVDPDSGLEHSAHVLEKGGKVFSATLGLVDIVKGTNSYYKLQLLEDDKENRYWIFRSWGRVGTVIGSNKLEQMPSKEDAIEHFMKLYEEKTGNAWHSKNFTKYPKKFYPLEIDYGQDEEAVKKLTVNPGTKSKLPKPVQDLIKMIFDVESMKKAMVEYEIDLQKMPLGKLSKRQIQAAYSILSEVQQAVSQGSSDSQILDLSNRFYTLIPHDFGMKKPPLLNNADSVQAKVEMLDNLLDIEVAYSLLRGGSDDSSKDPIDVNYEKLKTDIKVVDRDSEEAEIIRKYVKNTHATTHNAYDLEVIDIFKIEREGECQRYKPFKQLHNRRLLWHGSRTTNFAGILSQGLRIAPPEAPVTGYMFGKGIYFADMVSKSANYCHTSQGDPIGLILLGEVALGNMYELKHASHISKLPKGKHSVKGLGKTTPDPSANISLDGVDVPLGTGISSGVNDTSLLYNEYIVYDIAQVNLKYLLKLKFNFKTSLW

`Cn1ncnc1[C@H]1c2n[nH]c(=O)c3cc(F)cc(c23)N[C@@H]1c1ccc(F)cc1` [BMN-673]: in the series on ES-8 EWS cells (1 or 10 μM), the “Basal level of DNA damage (comet tail moment)” value was “elevated”. Further, the “Sensitivity (cytotoxicity)” value with ES-6 cells [1] is given as “resistant”. In series [2], the concentration at 12 h is no less than 15 nM and the “Murine equivalent dose (most appropriate dose for twice-daily oral administration in mice)” value (from here on “Murine equivalent dose”) was determined as 0.125 mg/kg. The “Sensitivity (cytotoxicity)” value in the series with Ewing sarcoma cell lines [3] (setting [9]) was “sensitive”.

A word on the pEC50: it is the negative decadic logarithm of the EC50, by convention in mol/L. As to `CCc1c2c(nc3ccc(O)cc13)-c1cc3c(c(=O)n1C2)COC(=O)[C@]3(O)CC` [SN-38], in series [4], the “Cmax and AUC of SN-38 in mouse plasma versus human plasma” value is “slightly higher”. Besides, the “Potency compared to other EWS cell lines” value in the series with ES-6 cells [1] is given as “significantly lower potency”. In addition, the pEC50 in the series on Ewing sarcoma cell lines [3] (144 hours, all EWS cell lines tested excluding ES-6) is greater than 8.00; with SAOS2, greater than 7.00. Also, the “Concentration at which PARPi is significantly potentiated” value in the series with EWS cell lines (setting [10]) was 1 to 10 nM.

With `Cn1nnc2c(C(N)=O)ncn2c1=O` [TMZ, temozolomide], in the series on Ewing sarcoma cell lines [3] (144 h), the pEC50 was less than 4.00. Further, the “Dose reduction needed to make the BMN-673 + TMZ combination tolerable” value in series [5] is given as 70%. In addition, in the series with EWS cell lines (potentiation of PARPi-mediated killing of EWS cells), the “Fold higher concentration of TMZ required for the same level of potentiation as IRN” value is ≥ 1,000 fold. For the same molecule, the “Concentration required for the same level of PARPi potentiation” value in the series with EWS cell lines (setting [10]) is 10 to 100 µM.

As to `O=C(c1cc(Cc2n[nH]c(=O)c3ccccc23)ccc1F)N1CCN(C(=O)C2CC2)CC1` [olaparib], the “Basal level of DNA damage (comet tail moment)” value with ES-8 EWS cells (10 μM) is on record as “elevated”. Besides, the “Potency compared to other EWS cell lines” value in the series on ES-6 cells [1] is “significantly lower potency”. Further, in series [2], the concentration at 12 h was no less than 90 nM and the “Murine equivalent dose” value is recorded as 50 mg/kg. Besides, the “Sensitivity (cytotoxicity)” value in the series on Ewing sarcoma cell lines [3] (setting [9]) was “sensitive”. In addition, in the series on ES-6 cells [6], the “Sensitivity in colony assays” value was “some sensitivity”. Besides, in the series on Ewing sarcoma cell lines [7], the “Sensitivity of EWS cell lines” value is reported as “sensitive”. In the series with ES-6 cells [8], the “Sensitivity (cytotoxicity)” value was “resistant”.

For `C[C@]1(c2nc3c(C(N)=O)cccc3[nH]2)CCCN1` [veliparib], in the series with ES-6 cells [1], the “Sensitivity (cytotoxicity)” value is recorded as “resistant”. For the same molecule, the “PARP trapping potential (rank order)” value at PARP1 is “BMN-673 > olaparib > veliparib”. In series [2], the concentration at 12 h was no less than 50 nM and the “Murine equivalent dose” value came to 12.5 mg/kg. The “Sensitivity (cytotoxicity)” value in the series on Ewing sarcoma cell lines [3] (all EWS cell lines except ES-6, 144 hours) is on record as “marginal”.

(Values after article PMC4386669 (Cell reports, 2014).)
